Experimental data: patent US6946456B2, “Methods for treating cell proliferative disorders and viral infections” (Sloan-Kettering Institute for Cancer Research, priority 2000, dated 2005)
“Also recorded” adds a separate entry of the source.

Columns and labels:
[1] = test system: Rb-wild type cells (MCF7 and Colo 205); assay: Cell cycle analysis by flow cytometry of ethidium bromide-stained nuclei, Rb-wild type tumor cell lines; format: cell-based, human; details: for cell cycle effect in tumor cell lines: 12 tumor cell lines examined, FIG. 1A
Protocol: (§1) The human breast cancer cell lines MB-MDA 468, MCF7 and BT-549 and the colon carcinoma cell line, Colo 205, were obtained from ATCC. Breast cell lines were maintained in DME-F12 media and Colo 205 cells in RPMI; both media were supplemented with 5% fetal calf serum (BRL), 2 mM glutamine and 50 u/ml each of penicillin and streptomycin. All cells were incubated at 37° C. in 5% C02. Cells were treated for 24 hours with 250 ng/ml herbimycin A (Gibco) dissolved in DMSO or 435 nM of radicicol (Sigma). After treatment the […] and analyzed by flow cytometry. Nuclei were isolated for flow cytometry assays stained with ethidium bromide and analyzed using a Becton Dickinson fluorescence-activated cell sorter. Statistical data was obtained using Multicycle program software.

[2] = test system: tumor cell lines with mutated Rb (MB-MDA 468, BT-549, DU145 and DU4475); assay: Cell cycle analysis by flow cytometry of ethidium bromide-stained nuclei, tumor cell lines with mutated Rb; format: cell-based, human
Protocol: as §1

[3] = test system: MB-MDA 468 cells; assay: Mitotic index by bisbenzimide staining; format: cell-based, human
Protocol: For mitotic indices, cells were typsinized, washed with PBS and fixed with 3% paraformaidehyde in PBS for 20 min. Cells were then stained with 3 μg/ml bisbenzimide (Hoechst 33258; Sigma) for 15 min and examined under fluorescence microscopy. Mitosis was scored by the presence of condensed chromosomes.

[4] = test system: cyclin B1 protein expression; assay: Immunoblot analysis of cyclin B1 expression; format: cell-based, human; details: MB-MDA 468, compared to control
Protocol: (§2) Levels of mitotic cyclin expression and associated kinase activities in herbimycin arrested MB-MD468 cells were assessed using immunoblot analysis and in vitro kinase assays as described below. Cells cultured with herbimycin were enriched for mitotically arrested cells by using only the loosely adherent population in which the mitotic index was greater than 90%.
(§3) Immunoblot analysis of lysates from cells treated with DMSO, nocodazole or herbimycin were analyzed by Western blot analysis using anti-cyclin A or anti-B1 antibodies. Treated cells were harvested, washed with PBS and lysed in NP40 lysis buffer (50 mM Tris pH7.4, 1% NP40,150 mM NaCl, 40 mM NaF. 1 mM Na3VO4, 1 mM phenylmethylsulfonlylfluoride, and 10 μg/ml. each of leupeptin, aprotinin and soybean trypsin inhibitor) for 30 min on ice. Lysates were centrifuged at 15,000×g for 10 min and protein concentration determined by bicinchoninic acid protein assay (Pierce). Equal amounts of total protein were resolved by SDS-PAGE and transferred onto Immobilon PVDF membranes (Millipore) by electroblotting. Blots were blocked overnight in 5% nonfat milk in TBS-T (0.1% Tween-20 TBS, 10 mM Tris pH 7.4, 150 mM NaCl) at 4° C. and subsequently probed with either anti-cyclin A or cyclin B1 antibodies (Santa Cruz Biotechnology). Following incubation with HRP-conjugated secondary antibodies, proteins were detected by chemiluminescence (Amersham).

[5] = test system: cyclin B1-associated kinase activity; assay: Immunoprecipitation and in vitro kinase assay (histone H1), cyclin B1; format: cell-based, human; details: MB-MDA 468, loosely adherent mitotically arrested cells
Protocol: as §2
(§4) For immunoprecipitation, 100 μg of total protein was incubated with anticyclin A or anti-cyclin B1 (Santa Cruz) antibodies for 2 hours at 4° C. and then for 1 hour following the addition of protein A-Sephaliose. The immune complexes were washed 4× with lysis buffer and boiled in SDS-PAGE sample buffer for 5 min. Following SDS-PAGE, proteins were transferred onto Immobilon and analyzed by western blotting.
(§5) For in vitro kinase reactions, immune complexes were washed 4× with lysis buffer, 2× with kinase buffer (20 mM Tris pH 7.4, 7.5 mM MgCl2, 1 mM DTT) and incubated in 40 μl of kinase buffer containing 2 μg histone H1, 10 μCi [γ-^32P] ATP and 300 μM ATP for 10 min at 37° C. The reaction was stopped by the addition of SDS-PAGE sample buffer and boiled for 5 min. Proteins were resolved on SDS-PAGE, transferred onto Immobilon and exposed to autoradiography film or phosphoimager screen. Kinase activity was quantitated by FUJIX phosphoimager and MacBAS program software.

[6] = test system: Rb transfected MB-MDA 468 cells (468-7 and 468-19); assay: Cell cycle analysis in Rb transfected MB-MDA 468 cells; format: cell-based, human
Protocol: (§6) To further confirm that the gene product of the Rb gene permits progression through mitosis in the presence of an HSP90 inhibitor, MB-MDA 468 cells were transfected with the plasmid pUHD1 0-3HGR containing full-length 4.7 kb human Rb cDNA. Rb transfectants were grown in DME-F12 media supplemented with 5% fetal calf serum (BRL), 2 mM glutamine and 50 μg/ml each of penicillin and streptomycin and 100 μg/ml hygromycin B (Boehringer Mannheim). To confirm the presence of the Rb gene product Western blot analysis was carried out using anti-Rb antibodies (Pharmingen) as described herein. Vector control, MB-MDA 468, and Rb transfected MB-MDA 468 cells were arrested with aphidicolin as described above. After release from aphidicolin arrest, transfected and non-transfected MM-MDA 468 cells were cultured in the presence of an ansamycin inhibitor as described in Example 1. Cell progression was monitored by flow cytometric analysis of ethidium bromide-stained nuclei as described above.

[7] = test system: Rb-negative MB-MDA 468 cells; assay: Synchrony experiment: release from aphidicolin block, MB-MDA 468; format: cell-based, human; details: released into drug
Protocol: (§7) Nuclei were isolated for flow cytometry assays stained with ethidium bromide and analyzed using a Becton Dickinson fluorescence-activated cell sorter. Statistical data was obtained using Multicycle program software.
(§8) For synchrony experiments, cells were treated with 1 μg/ml aphidicolin (Sigma) for 18 hours, washed and replated in media containing DMSO or HA.
as §6

[8] = test system: Rb-wild type Colo 205 cells; assay: Synchrony experiment: release from aphidicolin block, Colo 205; format: cell-based, human; details: released into drug
Protocol: as §7, §8

[9] = test system: cyclin A expression; assay: Immunoblot analysis of cyclin A expression; format: cell-based, human; details: MB-MDA 468, arrested cells compared to control cells
Protocol: as §2, §3

[10] = test system: cyclin A-associated kinase activity; assay: Immunoprecipitation and in vitro kinase assay (histone H1), cyclin A; format: cell-based, human; details: MB-MDA 468, arrested cells compared to control cells
Protocol: as §2, §4, §5

[11] = test system: MB-MDA 468 cells; assay: Immunofluorescent analysis (bisbenzimide, anti-α-tubulin, ACA/CREST); format: cell-based, human
Protocol: For immunofluorescent analysis, harvested cells were washed with PBS, fixed with methanol for 20 min at −20° C., washed again and blocked for 30 min with 2% BSA in PBS. Cells were then stained with anti-α-tubulin (Sigma) and anti-centromere protein antibodies (ACA/CREST) (gift of Dr. J. D. Rattner) in 2% BSA PBS for 1 hour. Following 3 washes with 0.5% BSA in PBS, cells were incubated with anti-human FITC conjugated, antimouse rhodamine conjugated antibodies (Molecular Probes) and 2 μg/ml bisbenzimide in 2% BSA in PBS for 45 min. Cells were then washed 4× with 0.5% BSA in PBS, resuspended in PBS and images captured by confocal microscopy or with a CCD camera. Images were then processed using Slidebook 3.0 and Adobe Photoshop program software.

[12] = test system: primary human foreskin keratinocytes (HFK); assay: Cell cycle analysis in primary human foreskin keratinocytes; format: cell-based; details: 24 hours
Protocol: (§9) Primary human foreskin keratinocytes transfected with HPV-1 6 E6 and E7 were provided by Drs. H. Stöppler and R. Schlegel (Georgetown Univ.) and grown as previously described. Primary human foreskin keratinocytes or HPV 16 E6/E7 transfected human foreskin keratinoytes were treated with HA or DMSO for 24 hours and ethidium bromide stained-nuclei analyzed by flow cytometry as described above.

[13] = test system: HPV 16 E6/E7 transfected human foreskin keratinocytes; assay: Cell cycle analysis in HPV 16 E6/E7 transfected human foreskin keratinocytes; format: cell-based; details: 24 hours
Protocol: as §9

C=CCNC1=C2C[C@@H](C)C[C@H](OC)[C@H](O)[C@@H](C)/C=C(\C)[C@H](OC(N)=O)[C@@H](OC)/C=C\C=C(/C)C(=O)NC(=CC1=O)C2=O [17-AAG, 17-allylamino-(17)-demethoxygeldanamycin]
cell cycle effect in tumor cell lines [1]: growth arrest in G1
cell cycle profiles and mitotic phenotype compared with HA ([2]; Rb-dependent): same Rb-dependent cell cycle profiles and mitotic phenotype as observed with HA

CO[C@H]1[C@@H](OC)C[C@H](C)[C@@H](OC)C2=CC(=O)C=C(NC(=O)/C(C)=C/C=C\[C@H](OC)[C@@H](OC(N)=O)/C(C)=C/[C@@H]1C)C2=O [HA, herbimycin A]
mitotic index of the loosely adherent population ([3]; MB-MDA 468, enriched for mitotically arrested cells): greater than 90%
mitotic index (cells in mitosis) ([3]; MB-MDA 468 cells, treated population, control 5-10%): 60-70%
cyclin B1 protein expression [4]: increased
cyclin B1-associated kinase activity, elevation compared to control [5]: 5 fold
cell cycle effect in tumor cell lines [1]: growth arrest in G1
cell cycle effect in Rb-transfectants ([6]; clones 468-7 and 468-19, asynchronous): increase in G1 and had no effect on G2/M; also recorded: no effect on G2/M in the Rb-transfectants and instead caused an increase in G1
cell cycle progression of Rb transfectants after release from aphidicolin block ([6]; clones 468-7 and 468-19, released into drug): cycled through mitosis and entered G1; also recorded: abrogates HA-induced mitotic arrest
cell cycle effect in tumor cell lines with mutated Rb ([2]; MB-MDA 468, BT-549, DU145 and DU4475, 250 ng/ml, 24 hours, FIG. 1B): accumulation of cells with 4n DNA content
cell cycle effect in control transfectants ([2]; control transfectants (MB-MDA 468 cells)): accumulated with 4n DNA content
time to arrest in the next mitosis after release from aphidicolin [7]: ≤ 12 h
cell cycle progression after release from aphidicolin block [8]: complete mitosis; also recorded: progressed through G2 and mitosis and were arrested in the next G1
cyclin A expression [9]: slightly lower
cyclin A-associated kinase activity [10]: slightly lower
chromosomes localized to the poles scored as double dots for ACA staining ([11]; 77 chromosomes localized to the poles): 87%
spindle formation (α-tubulin staining) ([11]; arrested Rb-negative cells): arrested cells contained bipolar spindles
chromosomal distribution (bisbenzimide and ACA/CREST staining) ([11]; arrested Rb-negative cells, in most cells): chromosomes localized both to the poles and within the spindle
cell cycle effect in primary HFK cells [12]: accumulate in G1
cell cycle effect in E6/E7 transfectants [13]: arrested with 4n DNA content; also recorded: mitotic arrest and not G1 arrest

C[C@@H]1C[C@H]2O[C@@H]2/C=C\C=C\C(=O)Cc2c(Cl)c(O)cc(O)c2C(=O)O1 [Radicicol]
cell cycle effect in Rb-positive cell lines ([1]; Colo205 and MCF7, 435 nM, 24 hours): induced G1 arrest
cell cycle effect in Rb-negative MDA-468 cells ([2]; MDA-468, 435 nM, 24 hours): accumulation of cells with 4n DNA content
chromosomal distribution in arrested MDA 468 cells ([11]; MDA 468 cells, radicicol-arrested): chromosomes localized to the poles as well as strewn along the spindle

COC(=O)Nc1nc2ccc(C(=O)c3cccs3)cc2[nH]1 [nocodazole]
cyclin A expression [9]: slightly lower
cyclin A-associated kinase activity [10]: slightly lower
